Test results from patent US6084081A, “Lewis X derivatives” (Daikin Industries, Ltd., priority 1996, dated 2000).

Columns and labels:
P-selectin = target: T1, P-selectin (Homo sapiens, UniProt P16109); conditions: relative to sugar chain (3); cited from earlier work
T1 sequence (P16109 42-830): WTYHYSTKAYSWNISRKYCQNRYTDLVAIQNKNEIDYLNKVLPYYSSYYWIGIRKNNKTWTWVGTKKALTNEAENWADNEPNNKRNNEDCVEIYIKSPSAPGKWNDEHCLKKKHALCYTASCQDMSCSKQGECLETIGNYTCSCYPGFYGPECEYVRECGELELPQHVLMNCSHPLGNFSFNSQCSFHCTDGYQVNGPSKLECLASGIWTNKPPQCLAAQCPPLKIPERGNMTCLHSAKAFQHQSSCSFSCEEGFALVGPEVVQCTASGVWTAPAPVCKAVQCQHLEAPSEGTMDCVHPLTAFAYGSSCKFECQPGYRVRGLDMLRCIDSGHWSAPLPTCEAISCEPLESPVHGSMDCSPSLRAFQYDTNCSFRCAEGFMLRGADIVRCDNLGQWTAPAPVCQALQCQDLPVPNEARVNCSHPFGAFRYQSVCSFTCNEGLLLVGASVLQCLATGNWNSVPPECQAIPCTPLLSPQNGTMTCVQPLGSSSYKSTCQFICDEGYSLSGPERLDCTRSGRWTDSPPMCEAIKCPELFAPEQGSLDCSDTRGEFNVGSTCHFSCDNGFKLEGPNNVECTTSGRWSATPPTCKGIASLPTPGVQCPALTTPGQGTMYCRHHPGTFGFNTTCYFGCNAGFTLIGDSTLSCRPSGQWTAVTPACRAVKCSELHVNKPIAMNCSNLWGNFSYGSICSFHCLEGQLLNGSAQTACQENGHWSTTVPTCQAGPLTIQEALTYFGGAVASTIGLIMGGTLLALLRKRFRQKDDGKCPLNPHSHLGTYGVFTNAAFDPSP

α-fucosidase = target: T2, α-fucosidase (Bos taurus, UniProt Q2KIM0); assay: Metabolic stability test: substrate decomposition reaction by α-fucosidase (remaining substrate by TLC); format: in vitro ADME
T2 construct: purchased Wako Pure Chemical Industries, Ltd
T2 sequence (Q2KIM0 23-468): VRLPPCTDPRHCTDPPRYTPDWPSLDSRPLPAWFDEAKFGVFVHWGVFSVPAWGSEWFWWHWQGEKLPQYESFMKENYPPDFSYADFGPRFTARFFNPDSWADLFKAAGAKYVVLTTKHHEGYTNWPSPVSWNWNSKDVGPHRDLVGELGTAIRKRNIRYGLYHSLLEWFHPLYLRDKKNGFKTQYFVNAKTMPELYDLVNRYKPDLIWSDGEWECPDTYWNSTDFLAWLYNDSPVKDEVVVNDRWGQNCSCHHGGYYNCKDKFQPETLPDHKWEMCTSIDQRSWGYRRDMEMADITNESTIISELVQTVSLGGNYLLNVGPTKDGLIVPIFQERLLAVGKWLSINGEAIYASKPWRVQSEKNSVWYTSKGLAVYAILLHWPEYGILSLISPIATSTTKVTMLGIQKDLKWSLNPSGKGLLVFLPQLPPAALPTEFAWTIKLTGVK
Experimental: The TLC plate was developed until the reaction solution front moved 2 cm (developing solvent; n-butanol:acetic acid:water=8:5:4). After immersion in phosphomolybdic acid.phosphoric acid.sulfonic acid mixed aqueous solution, the plate was heated to develop colors and the amount of the remaining substrate was measured.

[1] = tested on: acute pulmonary inflammation induced using a cobra venom factor; conditions: rats, Mulligan et al., Nature 364, 149 (1993); cited from earlier work

With “1-deoxy sialyl Lewis X [sugar chain (4)]” as the compound, how does the “inhibitory activity against P-selectin, times as potent as sugar chain (3)” value (P-selectin) read?
The value was “about 20 times”.

For `CCCCCCCCCCCCCC=CC(O)C(COC1OC(CO)C(OC2OC(CO)C(O)C(OC3OC(CF)C(OC4OC(CO)C(O)C(OC5(C(=O)O)CC(O)C(NC(C)=O)C(C(O)C(O)CO)O5)C4O)C(OC4OC(C)C(O)C(O)C4O)C3NC(C)=O)C2O)C(O)C1O)NC(=O)CCCCCCCCCCCCCCCCC` [Compound 24, O-(5-Acetamide-3,5-dideoxy-D-glycero-α-D-galacto-2-nonulopyranosylonic acid)-(2→3)-O-β-D-glucopyranosyl-(1→4)-O-[α-L-fucopyranosyl-(1→3)]-O-(2-acetamide-2,6-dideoxy-6-fluoro-β-D-galactopyranosyl)-(1→3)-O-β-D-galactopyranosyl)-(1→4)-β-D-glucopyranosyl-(1→1)(2S, 3R, 4E)-2-octadecaneamide-4-octadecene-1,3-diol], which “stability against decomposition by α-fucosidase (in words)” value (α-fucosidase; in the presence of α-fucosidase) is on record?
Its value is “more strongly resists the decomposition by α-fucosidase than a natural Ganglioside”.

What about the “Remaining Syalyl Lewis X (%)” value (α-fucosidase; α-fucosidase, time 0 min) of the same compound?
The value was 100%.

With “sialyl Lewis X sugar chain [sialyl Lewis X sugar chain (3)]” as the compound, how does the “effect on acute pulmonary inflammation (in words)” value [1] read?
Its value is “ameliorates acute pulmonary inflammation”.
